Where two headings read alike, the source gives them in different places.
Columns and labels:
[1] = Microsomal incubations, hLM; format: in vitro ADME; conditions: human, pooled liver microsomes, pH 7.4; microsomes 0.5 mg/ml, 0.5 μM compound; read-out: Metabolic clearance hLM
Protocol: Pooled human liver microsomes were purchased from Xenotech LLC (Kansas City, KS). Microsomes (0.5 mg/ml) were preincubated with 0.5 μM test compound for 7 min at 37°C in 50 mM phosphate buffer, pH 7.4. The reactions were initiated by adding prewarmed cofactor (0.44 mM NADPH). Aliquots of samples were taken at 0, 5, 10, 20 and 45 min and the reactions terminated by addition of cold acetonitrile containing an internal standard. Samples were centrifuged at 3000g for 10 min at 4°C and then supernatants were analyzed by LC/MS/MS for the amount of parent compound remaining.

TBR2 = biological target: T1, TBR2 (Homo sapiens, UniProt P37173); assay: DiscoverX Kd determination; format: binding
T1 construct: T7 phage fusion (or DNA tag for qPCR if made in HEK-293); purchased DiscoverX; host or cells: E. coli (T7 phage) or HEK-293
Protocol: DiscoverX Kd determination: For most assays, kinase-tagged T7 phage strains were prepared in an E. coli host derived from the BL21 strain. E. coli were grown to log-phase and infected with T7 phage and incubated with shaking at 32°C until lysis. The lysates were centrifuged and filtered to remove cell debris. The remaining kinases were produced in HEK-293 cells and subsequently tagged with DNA for qPCR detection. […] The liganded beads were blocked with excess biotin and washed with blocking buffer (SeaBlock (Pierce), 1% BSA, 0.05% Tween 20, 1 mM DTT) to remove unbound ligand and to reduce non-specific binding. […] Kds were determined using an 11-point 3-fold compound dilution series with three DMSO control points. […] The compounds were then diluted directly into the assays such that the final concentration of DMSO was 0.9%. All reactions performed in polypropylene 384-well plate. Each was a final volume of 0.02 ml. […] The kinase concentration in the eluates was measured by qPCR. An 11-point 3-fold serial dilution of each test compound was prepared in 100% DMSO at 100x final test concentration and subsequently diluted to 1x in the assay (final DMSO concentration = 1%). Most Kds were determined using a compound top concentration = 30.000 nM. […] Binding constants (Kds) were calculated with a standard dose-response curve using the Hill equation: Response = Background + Signal – Background 1 + (KdHill Slope / DoseHill Slope). The Hill Slope was set to -1. Curves were fitted using a non-linear least square fit with the Levenberg-Marquardt algorithm.

[2] = Microsomal incubations, rLM; format: in vitro ADME; conditions: rat, liver microsomes, pH 7.4; microsomes 0.5 mg/ml, 0.5 μM compound; read-out: Metabolic clearance rLM
ACVR2A = biological target: T2, ACVR2A (Homo sapiens, UniProt P27037); assay: DiscoverX Kd determination; format: binding
T2 construct: T7 phage fusion (or DNA tag for qPCR if made in HEK-293); purchased DiscoverX; host or cells: E. coli (T7 phage) or HEK-293
Protocol: (§1) DiscoverX Kd determination: For most assays, kinase-tagged T7 phage strains were prepared in an E. coli host derived from the BL21 strain. E. coli were grown to log-phase and infected with T7 phage and incubated with shaking at 32°C until lysis. The lysates were centrifuged and filtered to remove cell debris. The remaining kinases were produced in HEK-293 cells and subsequently tagged with DNA for qPCR detection. Streptavidin-coated magnetic beads were treated with biotinylated small molecule ligands for 30 minutes at room temperature to generate affinity resins for kinase assays. The liganded beads were blocked with excess biotin and washed with blocking buffer (SeaBlock (Pierce), 1% BSA, 0.05% Tween 20, 1 mM DTT) to remove unbound ligand and to reduce non-specific binding. […] Test compounds were prepared as 111X stocks in 100% DMSO. Kds were determined using an 11-point 3-fold compound dilution series with three DMSO control points. […] The compounds were then diluted directly into the assays such that the final concentration of DMSO was 0.9%. All reactions performed in polypropylene 384-well plate. Each was a final volume of 0.02 ml. […] The kinase concentration in the eluates was measured by qPCR. An 11-point 3-fold serial dilution of each test compound was prepared in 100% DMSO at 100x final test concentration and subsequently diluted to 1x in the assay (final DMSO concentration = 1%). Most Kds were determined using a compound top concentration = 30.000 nM. […] Binding constants (Kds) were calculated with a standard dose-response curve using the Hill equation: Response = Background + Signal – Background 1 + (KdHill Slope / DoseHill Slope). The Hill Slope was set to -1. Curves were fitted using a non-linear least square fit with the Levenberg-Marquardt algorithm.

ACVR2B = biological target: T3, ACVR2B (Homo sapiens, UniProt Q13705); assay: DiscoverX Kd determination; format: binding
T3 construct: T7 phage fusion (or DNA tag for qPCR if made in HEK-293); purchased DiscoverX; host or cells: E. coli (T7 phage) or HEK-293
Protocol: as §1

ALK_R1275Q = biological target: T4, ALK_R1275Q (Homo sapiens, UniProt Q9UM73, R1275Q); assay: Proqinase Kinase profiling; format: biochemical; conditions: read-out: % inhibition at 100nM
T4 construct: purchased DiscoverX

PDGFRA_T674I = biological target: T5, PDGFRA_T674I (Homo sapiens, UniProt P16234, T674I); assay: Proqinase Kinase profiling; format: biochemical; conditions: read-out: % inhibition at 100nM
T5 construct: purchased DiscoverX

FGFR1_V561M = biological target: T6, FGFR1_V561M (Homo sapiens, UniProt P11362, V561M); assay: Proqinase Kinase profiling; format: biochemical; conditions: read-out: % inhibition at 100nM
T6 construct: purchased DiscoverX

CDK16_cyclinY = biological target: T7, CDK16_cyclinY (Homo sapiens, UniProt Q00536); assay: Proqinase Kinase profiling; format: biochemical; conditions: read-out: % inhibition at 100nM
T7 construct: purchased DiscoverX

CDC42BPB = biological target: T8, CDC42BPB (Homo sapiens, UniProt Q9Y5S2); assay: Proqinase Kinase profiling; format: biochemical; conditions: read-out: % inhibition at 100nM
T8 construct: purchased DiscoverX

NUAK2 = biological target: T9, NUAK2 (Homo sapiens, UniProt Q9H093); assay: Proqinase Kinase profiling; format: biochemical; conditions: read-out: % inhibition at 100nM
T9 construct: purchased DiscoverX

PHKG1 = biological target: T10, PHKG1 (Homo sapiens, UniProt Q16816); assay: Proqinase Kinase profiling; format: biochemical; conditions: read-out: % inhibition at 100nM
T10 construct: purchased DiscoverX

CSNK1E = biological target: T11, CSNK1E (Homo sapiens, UniProt P49674); assay: Proqinase Kinase profiling; format: biochemical; conditions: read-out: % inhibition at 100nM
T11 construct: purchased DiscoverX

EPHA8 = biological target: T12, EPHA8 (Homo sapiens, UniProt P29322); assay: Proqinase Kinase profiling; format: biochemical; conditions: read-out: % inhibition at 100nM
T12 construct: purchased DiscoverX

ERBB2 = biological target: T13, ERBB2 (Homo sapiens, UniProt P04626); assay: Proqinase Kinase profiling; format: biochemical; conditions: read-out: % inhibition at 100nM
T13 construct: purchased DiscoverX

CAMK2A = biological target: T14, CAMK2A (Homo sapiens, UniProt Q9UQM7); assay: Proqinase Kinase profiling; format: biochemical; conditions: read-out: % inhibition at 100nM
T14 construct: purchased DiscoverX

DSTYK = biological target: T15, DSTYK (Homo sapiens, UniProt Q6XUX3); assay: Proqinase Kinase profiling; format: biochemical; conditions: read-out: % inhibition at 100nM
T15 construct: purchased DiscoverX

FES = biological target: T16, FES (Homo sapiens, UniProt P07332); assay: Proqinase Kinase profiling; format: biochemical; conditions: read-out: % inhibition at 100nM
T16 construct: purchased DiscoverX

MAPKAPK2 = biological target: T17, MAPKAPK2 (Homo sapiens, UniProt P49137); assay: Proqinase Kinase profiling; format: biochemical; conditions: read-out: % inhibition at 100nM
T17 construct: purchased DiscoverX

T3 sequence (Q13705 19-512): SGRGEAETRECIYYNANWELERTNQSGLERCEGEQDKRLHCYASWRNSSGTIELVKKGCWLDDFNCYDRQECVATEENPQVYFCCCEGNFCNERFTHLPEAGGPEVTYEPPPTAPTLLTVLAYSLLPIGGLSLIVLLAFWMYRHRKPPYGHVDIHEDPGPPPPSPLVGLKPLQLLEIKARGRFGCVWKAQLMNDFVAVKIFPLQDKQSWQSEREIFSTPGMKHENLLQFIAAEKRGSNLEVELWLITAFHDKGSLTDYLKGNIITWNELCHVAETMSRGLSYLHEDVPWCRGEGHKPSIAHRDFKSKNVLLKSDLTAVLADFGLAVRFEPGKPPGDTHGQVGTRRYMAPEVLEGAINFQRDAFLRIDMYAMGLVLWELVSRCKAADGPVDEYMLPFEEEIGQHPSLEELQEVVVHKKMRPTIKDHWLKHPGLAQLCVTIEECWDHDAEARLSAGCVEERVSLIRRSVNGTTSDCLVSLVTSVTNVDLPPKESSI
T1 sequence (P37173 23-567): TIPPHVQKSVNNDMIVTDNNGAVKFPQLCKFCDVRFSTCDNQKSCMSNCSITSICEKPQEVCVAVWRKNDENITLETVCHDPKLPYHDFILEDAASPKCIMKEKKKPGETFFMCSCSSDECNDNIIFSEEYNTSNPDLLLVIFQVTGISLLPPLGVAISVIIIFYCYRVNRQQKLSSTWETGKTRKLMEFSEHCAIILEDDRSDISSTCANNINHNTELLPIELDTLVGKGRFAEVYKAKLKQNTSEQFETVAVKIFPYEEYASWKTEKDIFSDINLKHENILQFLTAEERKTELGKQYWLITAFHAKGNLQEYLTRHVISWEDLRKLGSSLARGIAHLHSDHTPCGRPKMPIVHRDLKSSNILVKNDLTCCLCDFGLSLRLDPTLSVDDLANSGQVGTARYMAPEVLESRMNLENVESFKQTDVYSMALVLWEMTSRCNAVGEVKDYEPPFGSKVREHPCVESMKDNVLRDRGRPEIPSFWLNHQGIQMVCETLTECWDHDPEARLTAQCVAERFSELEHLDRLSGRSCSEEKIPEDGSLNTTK
T2 sequence (P27037 20-513): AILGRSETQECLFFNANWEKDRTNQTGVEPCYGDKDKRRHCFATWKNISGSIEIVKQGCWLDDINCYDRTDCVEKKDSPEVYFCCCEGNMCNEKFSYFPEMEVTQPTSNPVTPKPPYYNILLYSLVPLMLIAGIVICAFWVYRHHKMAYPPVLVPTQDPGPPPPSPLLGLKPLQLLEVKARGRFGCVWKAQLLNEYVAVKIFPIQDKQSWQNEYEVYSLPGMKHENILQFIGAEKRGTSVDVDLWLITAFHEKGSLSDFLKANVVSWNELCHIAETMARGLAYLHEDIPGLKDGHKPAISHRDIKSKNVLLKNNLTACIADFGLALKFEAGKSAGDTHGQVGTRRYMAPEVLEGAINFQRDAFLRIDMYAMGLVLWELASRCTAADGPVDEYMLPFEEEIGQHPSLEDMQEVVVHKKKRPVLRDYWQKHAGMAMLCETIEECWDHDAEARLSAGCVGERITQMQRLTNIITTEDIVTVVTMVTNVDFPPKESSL
T5 sequence (P16234 24-1089 T674I): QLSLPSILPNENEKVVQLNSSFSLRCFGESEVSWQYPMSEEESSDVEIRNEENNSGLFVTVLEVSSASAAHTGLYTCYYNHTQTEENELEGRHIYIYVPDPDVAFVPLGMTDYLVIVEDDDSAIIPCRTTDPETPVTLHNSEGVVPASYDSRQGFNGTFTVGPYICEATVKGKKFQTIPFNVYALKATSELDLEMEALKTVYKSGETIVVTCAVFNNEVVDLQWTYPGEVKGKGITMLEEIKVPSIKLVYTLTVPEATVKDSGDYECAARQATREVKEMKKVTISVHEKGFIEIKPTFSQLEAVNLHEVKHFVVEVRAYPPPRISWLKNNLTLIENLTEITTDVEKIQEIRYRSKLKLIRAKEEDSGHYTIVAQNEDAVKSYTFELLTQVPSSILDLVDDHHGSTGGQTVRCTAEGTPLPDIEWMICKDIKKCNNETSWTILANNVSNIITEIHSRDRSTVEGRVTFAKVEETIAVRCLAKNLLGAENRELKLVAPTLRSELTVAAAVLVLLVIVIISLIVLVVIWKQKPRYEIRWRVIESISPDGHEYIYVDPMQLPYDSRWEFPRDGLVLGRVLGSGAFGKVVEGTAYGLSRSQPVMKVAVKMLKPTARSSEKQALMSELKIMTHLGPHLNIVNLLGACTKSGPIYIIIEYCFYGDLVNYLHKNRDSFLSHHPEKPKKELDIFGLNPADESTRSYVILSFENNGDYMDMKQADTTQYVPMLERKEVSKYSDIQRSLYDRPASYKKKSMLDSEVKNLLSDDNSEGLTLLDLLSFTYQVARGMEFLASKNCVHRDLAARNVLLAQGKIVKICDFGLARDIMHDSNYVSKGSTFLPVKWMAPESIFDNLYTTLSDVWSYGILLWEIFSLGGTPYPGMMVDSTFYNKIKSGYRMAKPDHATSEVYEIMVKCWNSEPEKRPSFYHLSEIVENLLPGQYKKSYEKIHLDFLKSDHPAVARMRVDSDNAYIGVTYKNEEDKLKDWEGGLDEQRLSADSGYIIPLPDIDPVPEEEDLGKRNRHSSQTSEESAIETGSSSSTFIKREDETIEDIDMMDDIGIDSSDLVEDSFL
T13 sequence (P04626 23-1255): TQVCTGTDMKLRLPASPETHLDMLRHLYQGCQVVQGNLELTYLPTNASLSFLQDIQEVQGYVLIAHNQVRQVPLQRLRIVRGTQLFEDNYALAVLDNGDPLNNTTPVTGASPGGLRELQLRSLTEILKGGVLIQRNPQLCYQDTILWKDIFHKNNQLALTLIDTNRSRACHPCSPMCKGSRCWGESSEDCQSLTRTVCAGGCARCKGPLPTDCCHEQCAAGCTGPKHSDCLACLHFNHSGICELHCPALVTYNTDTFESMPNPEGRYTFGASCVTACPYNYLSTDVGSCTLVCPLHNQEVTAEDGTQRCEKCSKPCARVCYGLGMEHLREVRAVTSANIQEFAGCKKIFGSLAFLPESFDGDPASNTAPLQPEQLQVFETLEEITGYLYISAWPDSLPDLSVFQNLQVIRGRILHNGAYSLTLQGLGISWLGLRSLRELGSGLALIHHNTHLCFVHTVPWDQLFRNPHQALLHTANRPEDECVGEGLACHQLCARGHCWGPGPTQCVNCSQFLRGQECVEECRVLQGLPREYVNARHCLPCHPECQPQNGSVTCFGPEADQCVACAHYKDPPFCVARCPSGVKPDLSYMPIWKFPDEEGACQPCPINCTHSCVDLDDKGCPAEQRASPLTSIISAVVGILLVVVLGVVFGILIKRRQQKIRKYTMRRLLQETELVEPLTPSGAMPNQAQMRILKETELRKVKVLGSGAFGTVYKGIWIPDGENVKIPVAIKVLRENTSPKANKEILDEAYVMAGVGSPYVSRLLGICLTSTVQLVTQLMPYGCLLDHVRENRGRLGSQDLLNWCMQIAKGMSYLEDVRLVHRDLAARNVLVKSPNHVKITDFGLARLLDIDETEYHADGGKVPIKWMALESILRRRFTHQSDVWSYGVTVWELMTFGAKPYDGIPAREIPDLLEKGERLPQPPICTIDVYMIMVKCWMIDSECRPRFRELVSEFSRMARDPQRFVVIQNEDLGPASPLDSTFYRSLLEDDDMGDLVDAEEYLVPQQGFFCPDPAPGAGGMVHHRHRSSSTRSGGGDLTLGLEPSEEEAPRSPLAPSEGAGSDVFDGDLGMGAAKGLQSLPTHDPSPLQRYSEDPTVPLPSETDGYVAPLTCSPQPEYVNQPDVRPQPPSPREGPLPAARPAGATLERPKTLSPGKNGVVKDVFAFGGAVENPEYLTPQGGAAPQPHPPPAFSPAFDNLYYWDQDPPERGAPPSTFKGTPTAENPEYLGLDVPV
T10 sequence (Q16816 whole entry): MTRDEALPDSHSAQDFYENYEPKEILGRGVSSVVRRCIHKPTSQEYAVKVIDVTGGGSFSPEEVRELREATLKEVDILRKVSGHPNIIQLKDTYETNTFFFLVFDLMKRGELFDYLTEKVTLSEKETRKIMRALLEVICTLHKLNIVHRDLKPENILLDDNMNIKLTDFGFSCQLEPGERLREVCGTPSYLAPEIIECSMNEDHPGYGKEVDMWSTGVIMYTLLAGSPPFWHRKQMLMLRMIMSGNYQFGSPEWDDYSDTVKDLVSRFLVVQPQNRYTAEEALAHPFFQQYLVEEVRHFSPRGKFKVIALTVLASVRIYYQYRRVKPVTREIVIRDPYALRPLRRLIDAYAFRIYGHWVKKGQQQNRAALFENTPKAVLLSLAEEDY
T6 sequence (P11362 22-822 V561M): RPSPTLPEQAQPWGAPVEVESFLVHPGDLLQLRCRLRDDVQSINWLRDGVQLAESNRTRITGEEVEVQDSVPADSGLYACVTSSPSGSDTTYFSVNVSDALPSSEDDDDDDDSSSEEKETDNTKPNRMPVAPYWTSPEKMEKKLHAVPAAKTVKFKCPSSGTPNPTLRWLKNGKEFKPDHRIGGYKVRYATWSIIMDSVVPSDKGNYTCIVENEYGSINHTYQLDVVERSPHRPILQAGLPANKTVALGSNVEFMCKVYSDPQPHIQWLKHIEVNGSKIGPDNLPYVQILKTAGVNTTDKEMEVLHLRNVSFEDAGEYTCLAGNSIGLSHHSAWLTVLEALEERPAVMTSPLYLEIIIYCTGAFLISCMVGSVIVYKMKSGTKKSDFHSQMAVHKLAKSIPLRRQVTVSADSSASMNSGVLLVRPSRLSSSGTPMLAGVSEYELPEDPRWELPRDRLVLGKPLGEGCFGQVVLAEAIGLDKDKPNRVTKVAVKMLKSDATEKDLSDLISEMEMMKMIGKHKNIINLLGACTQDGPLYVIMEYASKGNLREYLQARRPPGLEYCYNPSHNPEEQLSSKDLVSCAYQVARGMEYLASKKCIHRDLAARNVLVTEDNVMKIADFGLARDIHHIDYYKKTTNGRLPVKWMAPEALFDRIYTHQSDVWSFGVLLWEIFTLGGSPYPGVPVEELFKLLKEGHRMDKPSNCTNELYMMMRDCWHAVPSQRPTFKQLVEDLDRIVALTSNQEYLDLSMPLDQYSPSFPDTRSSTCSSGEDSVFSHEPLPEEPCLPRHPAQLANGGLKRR

| SMILES | microsomal CLint at 0.5 μM [1] [µL/min/mg] | Kd (TBR2) [nM] | microsomal CLint at 0.5 μM [2] [µL/min/mg] | Kd (ACVR2A) [nM] | Kd (ACVR2B) [nM] | inhibition at 0.1 µM (ALK_R1275Q) [%] | inhibition at 0.1 µM (PDGFRA_T674I) [%] | inhibition at 0.1 µM (FGFR1_V561M) [%] | inhibition at 0.1 µM (CDK16_cyclinY) [%] | inhibition at 0.1 µM (CDC42BPB) [%] | inhibition at 0.1 µM (NUAK2) [%] | inhibition at 0.1 µM (PHKG1) [%] | inhibition at 0.1 µM (CSNK1E) [%] | inhibition at 0.1 µM (EPHA8) [%] | inhibition at 0.1 µM (ERBB2) [%] | inhibition at 0.1 µM (CAMK2A) [%] | Kd (TBR2; read-out: Kd in nM TBR2) [nM] | inhibition at 0.1 µM (DSTYK) [%] | inhibition at 0.1 µM (FES) [%] | inhibition at 0.1 µM (MAPKAPK2) [%] |
| --- | --- | --- | --- | --- | --- | --- | --- | --- | --- | --- | --- | --- | --- | --- | --- | --- | --- | --- | --- | --- |
| c1ccc2c(-c3cnn4cc(-c5ccc(N6CCNCC6)cc5)cnc34)ccnc2c1 [LDN-193189, reference compound] | 61 | 26 | 185 | 12 | 11 |  |  |  |  |  |  |  |  |  |  |  |  |  |  |  |
| Clc1cc2cc(c1)-c1cnn3ccc(nc13)NCCOCCO2 [OD36] | 59 |  | 74 | 3000 | 90 | 6 | -22 | 9 | 12 | 7 | 9 | 8 | 6 | 11 | 0 | 18 | 680 | 3 | 9 | -9 |
| Cc1cc2cc(c1)-c1cnn3ccc(nc13)NCCNC(=O)CCN(C)C2 [OD52] | 72 |  | 32 | 590 | 220 | -1 | 4 | -26 | -2 | 11 | -7 | -4 | 20 | -6 | -44 | 25 | 2500 | -1 | -26 | -1 |
